In ChEMBL document CHEMBL1148784, “Synthesis and structure-affinity relationships of new 4-(6-iodo-H-imidazo[1,2-a]pyridin-2-yl)-N-dimethylbenzeneamine derivatives as ligands for human beta-amyloid plaques” (J Med Chem, 2007):

The compounds below were run against Amyloid-beta precursor protein (Homo sapiens, UniProt P05067) (assay: Binding affinity to human beta amyloid plaque in alzheimer's disease patient brain).
Chain of Amyloid-beta precursor protein (P05067 whole entry): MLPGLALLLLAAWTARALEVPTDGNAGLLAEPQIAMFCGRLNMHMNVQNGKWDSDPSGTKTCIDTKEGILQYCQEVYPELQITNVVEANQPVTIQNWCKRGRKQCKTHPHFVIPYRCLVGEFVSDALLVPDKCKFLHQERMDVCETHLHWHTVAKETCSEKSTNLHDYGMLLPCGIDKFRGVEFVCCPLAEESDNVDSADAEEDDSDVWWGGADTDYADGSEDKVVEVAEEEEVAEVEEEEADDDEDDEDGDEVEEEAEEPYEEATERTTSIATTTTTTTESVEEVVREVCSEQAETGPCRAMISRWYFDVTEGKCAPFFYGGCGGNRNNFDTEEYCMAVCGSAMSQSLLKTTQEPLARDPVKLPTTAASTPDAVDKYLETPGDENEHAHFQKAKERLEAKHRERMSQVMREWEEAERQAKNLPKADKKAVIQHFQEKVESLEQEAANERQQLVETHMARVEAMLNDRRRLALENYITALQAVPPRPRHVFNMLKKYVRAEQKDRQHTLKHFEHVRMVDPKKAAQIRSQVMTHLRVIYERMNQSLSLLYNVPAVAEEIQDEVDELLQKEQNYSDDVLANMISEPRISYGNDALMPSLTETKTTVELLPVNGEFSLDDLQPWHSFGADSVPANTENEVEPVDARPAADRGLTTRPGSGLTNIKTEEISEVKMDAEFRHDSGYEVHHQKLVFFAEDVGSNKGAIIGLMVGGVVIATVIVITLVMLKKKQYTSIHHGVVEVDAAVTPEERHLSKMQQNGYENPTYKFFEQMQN

Ki [nM]	Compound
183	CN(C)c1ccc(-c2cn3cc(Br)cc(I)c3n2)cc1
> 180	CN(C)c1ccc(-c2cn3cc(Br)cc(C#N)c3n2)cc1
> 1000	Cc1cc(-c2cn3cc(Br)ccc3n2)ccc1NC(=O)C(F)(F)F
> 1000	CNc1ccc(-c2cn3cc(SCC(N)=O)ccc3n2)cc1C
> 1000	CC(=O)N(C)c1ccc(-c2cn3cc(Br)ccc3n2)cc1C
> 1000	CN(C(=O)C(F)(F)F)c1ccc(-c2cn3cc(Br)ccc3n2)cc1Br
> 1000	CNc1ccc(-c2cn3cc(SCCO)ccc3n2)cc1C
> 1000	CNc1ccc(-c2cn3cc(Br)ccc3n2)cc1C
